Where two headings read alike, the source gives them in different places.
Tests used:
PDE1C = PDE1C (Homo sapiens, UniProt Q14123); experiment: Selective inhibitory activity assay, PDE1C; assay type: biochemical; conditions: read-out: Inhibition rate (%) of PDE1C
Protocol: (§1) 7. Selective inhibitory activity assay for PDE1, 2, 3, 5, 7, 10 and 11 enzymes
(§2) The selective specificity of compounds for PDE4 was assessed by assaying single concentrations of the compounds. For example, PDE1a enzyme, PDElc enzyme, PDE2a enzyme, PDE3a enzyme, PDE3b enzyme, PDE5a1 enzyme, PDE7a enzyme, PDE7b enzyme, PDE10a1 enzyme and PDE11a4 enzyme were tested. The selective inhibitory effects of different compounds on the enzymatic activities of PDEIC, PDE2A, PDE3B, PDE5A1, PDE7A, and PDE10A1 at concentrations of 10 μM and 1 μM, respectively, are shown in the table below: […]

IL-2 = experiment: Inhibition of IL-2 induced in human peripheral blood mononuclear cells; assay type: cell-based; conditions: human PBMC, stimulus SEB; read-out: IC50 (nM), cytokine IL-2
Protocol: 8. Inhibitory assay of inflammatory factors TNF-α, IL-2, INF-γ
Determination of TNF-α, IL-2 and INF-γ induced by LPS/SEB in human peripheral blood mononuclear cells:
1. The purchased PBMC frozen cells were thawed at 37° C., transferred to RMPI1640 medium, and incubated overnight at 37° C. in an incubator containing 5% of CO2.
2. The next day, the cells were planked at 2×10^5 cells/well, with 100 μL per well.
4. LPS stimulus was added to each well at a final concentration of 10 ng/ml.
5. Incubation was carried out overnight at […] in an incubator containing 5% of CO2.
6. On the third day, the cell culture supernatant was collected, and cytokine assay was performed using an MSD method.

PDE2A = PDE2A (Homo sapiens, UniProt O00408); experiment: Selective inhibitory activity assay, PDE2A; assay type: biochemical; conditions: read-out: Inhibition rate (%) of PDE2A
Chain of PDE2A (O00408 whole entry, species assumed): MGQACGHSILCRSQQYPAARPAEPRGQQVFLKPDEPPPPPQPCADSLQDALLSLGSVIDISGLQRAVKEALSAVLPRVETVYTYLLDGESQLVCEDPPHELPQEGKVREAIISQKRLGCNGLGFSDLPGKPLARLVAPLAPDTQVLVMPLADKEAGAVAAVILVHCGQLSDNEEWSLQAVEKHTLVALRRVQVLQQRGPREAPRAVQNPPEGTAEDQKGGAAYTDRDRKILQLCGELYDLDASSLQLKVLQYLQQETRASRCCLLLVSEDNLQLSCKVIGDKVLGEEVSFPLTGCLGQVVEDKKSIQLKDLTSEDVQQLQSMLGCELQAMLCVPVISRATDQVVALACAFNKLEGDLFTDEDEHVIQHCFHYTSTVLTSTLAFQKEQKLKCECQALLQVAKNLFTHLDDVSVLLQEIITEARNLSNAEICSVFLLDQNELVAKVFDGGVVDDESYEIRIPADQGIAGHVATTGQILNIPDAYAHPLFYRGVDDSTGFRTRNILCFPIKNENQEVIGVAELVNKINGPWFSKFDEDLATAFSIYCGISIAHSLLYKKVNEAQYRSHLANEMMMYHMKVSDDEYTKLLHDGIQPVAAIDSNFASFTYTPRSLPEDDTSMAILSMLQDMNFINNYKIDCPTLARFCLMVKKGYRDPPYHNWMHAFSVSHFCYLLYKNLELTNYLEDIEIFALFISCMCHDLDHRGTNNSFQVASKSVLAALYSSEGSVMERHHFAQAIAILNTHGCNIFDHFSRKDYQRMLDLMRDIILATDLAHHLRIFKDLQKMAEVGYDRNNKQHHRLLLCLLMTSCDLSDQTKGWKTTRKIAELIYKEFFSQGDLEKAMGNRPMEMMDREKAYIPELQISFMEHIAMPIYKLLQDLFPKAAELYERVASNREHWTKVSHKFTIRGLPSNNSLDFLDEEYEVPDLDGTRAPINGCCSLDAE
Protocol: as §1, §2

PDE10A1 = PDE10A1 (Homo sapiens, UniProt Q9Y233); experiment: Selective inhibitory activity assay, PDE10A1; assay type: biochemical; conditions: read-out: Inhibition rate (%) of PDE10A1
Chain of PDE10A1 (Q9Y233 1-779 isoform Q9Y233-1, species assumed): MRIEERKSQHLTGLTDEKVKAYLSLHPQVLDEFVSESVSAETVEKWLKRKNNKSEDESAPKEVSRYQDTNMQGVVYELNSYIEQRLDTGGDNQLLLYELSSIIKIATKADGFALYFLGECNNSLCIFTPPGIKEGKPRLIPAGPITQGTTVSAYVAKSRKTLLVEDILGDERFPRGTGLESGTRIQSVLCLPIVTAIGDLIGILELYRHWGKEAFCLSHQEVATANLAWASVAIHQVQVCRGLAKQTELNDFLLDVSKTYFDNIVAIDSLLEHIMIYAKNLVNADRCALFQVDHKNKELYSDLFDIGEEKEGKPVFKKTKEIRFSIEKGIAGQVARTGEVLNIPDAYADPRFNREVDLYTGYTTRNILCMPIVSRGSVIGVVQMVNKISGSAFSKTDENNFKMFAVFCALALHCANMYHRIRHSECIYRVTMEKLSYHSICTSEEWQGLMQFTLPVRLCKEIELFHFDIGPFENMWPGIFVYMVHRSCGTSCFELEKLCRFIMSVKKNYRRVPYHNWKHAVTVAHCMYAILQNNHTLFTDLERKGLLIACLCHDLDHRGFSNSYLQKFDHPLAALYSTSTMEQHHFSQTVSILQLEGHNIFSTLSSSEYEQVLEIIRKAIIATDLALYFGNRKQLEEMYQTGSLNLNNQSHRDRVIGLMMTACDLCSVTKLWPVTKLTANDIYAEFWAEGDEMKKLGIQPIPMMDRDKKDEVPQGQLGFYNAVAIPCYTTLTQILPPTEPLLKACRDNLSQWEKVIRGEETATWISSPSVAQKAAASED
Protocol: as §1, §2

PDE3B = PDE3B (Homo sapiens, UniProt Q13370); experiment: Selective inhibitory activity assay, PDE3B; assay type: biochemical; conditions: read-out: Inhibition rate (%) of PDE3B
Chain of PDE3B (Q13370 whole entry, species assumed): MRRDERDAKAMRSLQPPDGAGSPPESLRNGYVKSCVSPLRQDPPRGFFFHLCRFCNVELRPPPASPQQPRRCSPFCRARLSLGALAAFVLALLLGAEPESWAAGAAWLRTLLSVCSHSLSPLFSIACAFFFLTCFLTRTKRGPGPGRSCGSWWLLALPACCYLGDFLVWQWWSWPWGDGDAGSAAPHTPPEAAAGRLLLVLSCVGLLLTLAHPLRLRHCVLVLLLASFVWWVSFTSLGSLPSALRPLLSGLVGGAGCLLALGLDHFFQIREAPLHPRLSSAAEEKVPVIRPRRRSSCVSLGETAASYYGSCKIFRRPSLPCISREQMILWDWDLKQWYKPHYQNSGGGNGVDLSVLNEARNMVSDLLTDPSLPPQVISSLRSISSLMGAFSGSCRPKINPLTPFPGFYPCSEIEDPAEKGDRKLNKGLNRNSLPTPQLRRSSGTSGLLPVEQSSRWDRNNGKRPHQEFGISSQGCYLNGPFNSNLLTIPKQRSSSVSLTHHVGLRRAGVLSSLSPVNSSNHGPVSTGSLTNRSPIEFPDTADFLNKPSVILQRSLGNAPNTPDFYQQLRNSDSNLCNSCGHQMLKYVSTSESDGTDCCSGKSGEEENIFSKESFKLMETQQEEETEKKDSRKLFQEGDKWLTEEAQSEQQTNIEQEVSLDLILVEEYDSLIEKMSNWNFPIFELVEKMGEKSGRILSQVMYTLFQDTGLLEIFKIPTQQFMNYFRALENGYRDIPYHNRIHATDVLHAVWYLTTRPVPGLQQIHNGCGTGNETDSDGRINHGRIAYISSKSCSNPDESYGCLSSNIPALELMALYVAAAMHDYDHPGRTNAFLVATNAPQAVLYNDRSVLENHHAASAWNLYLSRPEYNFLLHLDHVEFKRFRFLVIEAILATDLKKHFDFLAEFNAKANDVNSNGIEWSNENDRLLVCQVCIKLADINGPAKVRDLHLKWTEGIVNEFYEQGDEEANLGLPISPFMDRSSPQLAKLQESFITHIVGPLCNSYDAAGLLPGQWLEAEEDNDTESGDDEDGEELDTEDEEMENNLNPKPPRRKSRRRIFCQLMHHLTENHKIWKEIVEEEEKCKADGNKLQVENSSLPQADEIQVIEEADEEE
Protocol: as §1, §2

PDE5A1 = PDE5A1 (Homo sapiens, UniProt O76074); experiment: Selective inhibitory activity assay, PDE5A1; assay type: biochemical; conditions: read-out: Inhibition rate (%) of PDE5A1
Protocol: as §1, §2

INF-γ = experiment: Inhibition of INF-γ induced in human peripheral blood mononuclear cells; assay type: cell-based
TNF-α = experiment: Inhibition of TNF-α induced in human peripheral blood mononuclear cells; assay type: cell-based; conditions: read-out: IC50 (nM), cytokine TNF-α
PDE7A = PDE7A (Homo sapiens, UniProt Q13946); experiment: Selective inhibitory activity assay, PDE7A; assay type: biochemical; conditions: read-out: Inhibition rate (%) of PDE7A
Chain of PDE7A (Q13946 whole entry, species assumed): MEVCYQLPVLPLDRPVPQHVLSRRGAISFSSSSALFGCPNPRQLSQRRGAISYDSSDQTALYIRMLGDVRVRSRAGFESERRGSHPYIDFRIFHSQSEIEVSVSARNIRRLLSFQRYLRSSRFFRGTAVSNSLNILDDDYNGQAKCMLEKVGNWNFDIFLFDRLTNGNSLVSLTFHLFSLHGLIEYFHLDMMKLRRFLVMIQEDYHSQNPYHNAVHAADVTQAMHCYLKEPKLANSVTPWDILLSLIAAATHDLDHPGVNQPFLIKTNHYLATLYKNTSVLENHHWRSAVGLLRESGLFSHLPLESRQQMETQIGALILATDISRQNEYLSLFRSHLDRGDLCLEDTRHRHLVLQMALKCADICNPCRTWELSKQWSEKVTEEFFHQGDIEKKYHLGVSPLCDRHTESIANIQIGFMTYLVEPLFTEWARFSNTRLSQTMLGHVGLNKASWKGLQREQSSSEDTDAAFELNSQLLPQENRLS
Protocol: as §1, §2

PDE4D3 = PDE4D3 (Homo sapiens, UniProt Q08499); experiment: Inhibition assay of PDE4D3 enzyme (TR-FRET kit); assay type: biochemical
Protocol: 2. Inhibition assay of PDE4D3 enzyme:
(§3) Materials and Instruments:
FAM substrate: A stock solution of 20 μM FAM substrate was diluted to 200 nM with PDE assay buffer. 12.5 μL of the diluted substrate was added to each reaction well.
(§4) 5 μL of the compound stock solution was added to 45 μL of DMSO to prepare a 1 mM diluent. 5 μL of the 1 mM diluent was added to 45 μL of PDE assay buffer to prepare a gradient dilution starting point. Then, according to the method of adding 5 μL of the previous concentration solution to 15 μL of PDE assay buffer, gradient dilution was carried out for 9 times to prepare compound working solutions with 10 concentrations. The working solutions were added to compound wells at 2.5 μL/well.
PDE4D3: 0.054 μL of a PDE4D3 recombinase stock solution was added to 1500 μL of PDE buffer, and the mixture was added to all compound wells and positive control wells at 10 μL/well. 10 μL of PDE assay buffer was added to substrate control wells.
Binding solution: 3750 μL of binding buffer A and 3750 μL of binding buffer B were mixed well. Then, 150 μL of a binder was added into the mixture and mixed well. 7.5 μL of a Tb donor was added and mixed well. The obtained mixture was added to all wells at 50 μL/well.
S520=Read value of sample 520 nm
S490=Read value of sample 490 nm
Tb520=Read value of Tb only 520 nm
Tb490=Read value of Tb only 490 nm
FRETp=Positive control FRET
FRETsub=Substrate control FRET.

PDE4B2 = molecular target: T1, PDE4B2 (Homo sapiens, UniProt Q07343); experiment: Inhibition assay of PDE4B2 enzyme (FP kit); assay type: biochemical
T1 construct: purchased BPS 60343
Protocol: 4. Inhibition assay of PDE4B2 enzyme:
as §3
(§5) FAM substrate: 25 μL of a FAM substrate stock solution was added into 2500 μL of PDE assay buffer. 25 μL of the diluted substrate was added to each reaction well.
as §4, with “5” for “2.5”
(§6) PDE4B2: First, a PDE4B2 stock solution was diluted by 100 times to a concentration of 5.2 ng/μL, 3.2 μL of the diluent was added to 2200 μL of PDE assay buffer, and the mixture was added to all compound wells and positive control wells at 20 μL/well. 20 μL of PDE assay buffer was added to substrate control wells.
Binding solution: 95 μL of binder was added into 9.5 mL of binder diluent, and then mixed well. The obtained mixture was added to all wells at 100 μL/well.
(§7) FPsub=Substrate control FP.

PDE4A1 = molecular target: T2, PDE4A1 (Homo sapiens, UniProt P27815); experiment: Inhibition assay of PDE4A1 enzyme (FP kit); assay type: biochemical
T2 construct: purchased BPS 60340
Protocol: 3. Inhibition assay of PDE4A1 enzyme:
as §3, §5
as §4, with “5” for “2.5”
as §6, with “PDE4A1:” for “PDE4B2:”, “PDE4A1” for “PDE4B2”, “4.9” for “5.2”, “1.8” for “3.2”
Binding solution: 95 μL of binding buffer was added into 9.5 mL of binder diluent, and then mixed well. The obtained mixture was added to all wells at 100 μL/well.
as §7

PDE4C1 = molecular target: T3, PDE4C1 (Homo sapiens, UniProt Q08493); experiment: Inhibition assay of PDE4C1 enzyme (FP kit); assay type: biochemical
T3 construct: purchased BPS 60384
T3 sequence (Q08493 whole entry): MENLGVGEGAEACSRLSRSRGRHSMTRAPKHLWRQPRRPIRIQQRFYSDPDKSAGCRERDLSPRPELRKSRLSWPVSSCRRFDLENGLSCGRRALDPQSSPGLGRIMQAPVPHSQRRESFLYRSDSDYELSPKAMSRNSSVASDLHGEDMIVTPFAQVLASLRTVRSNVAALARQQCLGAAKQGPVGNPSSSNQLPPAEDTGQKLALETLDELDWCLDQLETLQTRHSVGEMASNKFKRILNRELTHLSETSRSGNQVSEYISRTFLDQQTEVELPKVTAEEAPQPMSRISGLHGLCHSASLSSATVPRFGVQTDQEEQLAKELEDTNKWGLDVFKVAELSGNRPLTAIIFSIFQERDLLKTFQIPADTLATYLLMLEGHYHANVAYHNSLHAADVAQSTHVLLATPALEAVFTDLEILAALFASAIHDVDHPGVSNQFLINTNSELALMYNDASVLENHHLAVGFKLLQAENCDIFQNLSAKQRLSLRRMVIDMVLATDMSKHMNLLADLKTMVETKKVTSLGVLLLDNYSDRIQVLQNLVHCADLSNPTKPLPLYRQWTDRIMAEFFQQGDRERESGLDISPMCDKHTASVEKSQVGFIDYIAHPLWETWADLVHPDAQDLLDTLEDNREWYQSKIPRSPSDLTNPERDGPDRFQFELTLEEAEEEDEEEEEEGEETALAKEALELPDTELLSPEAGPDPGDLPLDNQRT
Protocol: 5. Inhibition assay of PDE4C1 enzyme:
as §3
FAM substrate: 12.5 μL of a FAM substrate stock solution was added into 1250 μL of PDE assay buffer. 12.5 μL of the diluted substrate was added to each reaction well.
as §4
as §6, with “PDE4C1:” for “PDE4B2:”, “PDE4C1” for “PDE4B2”, “3.2” for “5.2”, “13.75” for “3.2”, “1100” for “2200”, “10” for “20”
Binding solution: 50 μL of binder was added into 5 mL of binder diluent, and then mixed well. The obtained mixture was added to all wells at 50 μL/well.
as §7

[1] = Homo sapiens, PBMC, read-out: IC50 (nM), cytokine INF-r, human PBMC, stimulus SEB
[2] = human PBMC, stimulus LPS, read-out: IC50 (nM), cytokine INF-r

Chain of PDE1C (Q14123 whole entry, species assumed): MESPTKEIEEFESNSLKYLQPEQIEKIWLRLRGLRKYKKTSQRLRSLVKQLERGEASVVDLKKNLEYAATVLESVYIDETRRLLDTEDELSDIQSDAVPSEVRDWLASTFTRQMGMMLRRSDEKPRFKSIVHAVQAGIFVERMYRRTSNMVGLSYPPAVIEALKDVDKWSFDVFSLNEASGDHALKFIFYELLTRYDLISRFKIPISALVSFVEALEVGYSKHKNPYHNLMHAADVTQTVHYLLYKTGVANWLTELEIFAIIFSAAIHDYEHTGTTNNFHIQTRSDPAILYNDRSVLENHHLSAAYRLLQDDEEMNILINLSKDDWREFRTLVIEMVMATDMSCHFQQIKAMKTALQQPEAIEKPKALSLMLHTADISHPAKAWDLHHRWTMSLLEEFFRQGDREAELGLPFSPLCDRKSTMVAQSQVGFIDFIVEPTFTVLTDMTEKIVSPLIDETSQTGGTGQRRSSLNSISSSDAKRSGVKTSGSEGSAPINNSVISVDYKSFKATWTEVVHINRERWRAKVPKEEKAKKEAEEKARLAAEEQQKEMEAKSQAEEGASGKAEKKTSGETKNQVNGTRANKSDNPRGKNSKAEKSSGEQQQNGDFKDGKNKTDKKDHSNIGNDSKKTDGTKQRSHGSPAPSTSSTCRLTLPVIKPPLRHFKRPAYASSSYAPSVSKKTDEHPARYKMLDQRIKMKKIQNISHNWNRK

| Structure (SMILES) | inhibition at 1 µM (PDE1C) [%] | inhibition at 10 µM (PDE1C) [%] | IC50 (IL-2) [nM] | inhibition at 1 µM (PDE2A) [%] | inhibition at 10 µM (PDE2A) [%] | inhibition at 1 µM (PDE10A1) [%] | inhibition at 10 µM (PDE10A1) [%] | inhibition at 1 µM (PDE3B) [%] | inhibition at 10 µM (PDE3B) [%] | inhibition at 1 µM (PDE5A1) [%] | IC50 (INF-γ; [1]) [nM] | inhibition at 1 µM (PDE7A) [%] | inhibition at 10 µM (PDE7A) [%] | IC50 (INF-γ; [2]) [nM] | IC50 (TNF-α; human PBMC, stimulus LPS) [nM] | further results |
| --- | --- | --- | --- | --- | --- | --- | --- | --- | --- | --- | --- | --- | --- | --- | --- | --- |
| CCOc1cc([C@@H](CS(C)(=O)=O)N2C(=O)c3cccc(NC(C)=O)c3C2=O)ccc1OC [Example 0, Apremilast, reference compound] | 7.77 | 37.1 | 110 | 2.95 | 2.35 | 0 | -2.75 | 2.44 | 1.56 | 3.97 | 77.8 | 9.41 | 11.1 | – | – | IC50 (INF-γ; Homo sapiens, PBMC, read-out: IC50 (nM), cytokine INF-r, human PBMC, stimulus LPS): 15.4 nM; IC50 (TNF-α; Homo sapiens, PBMC): 63.8 nM |
| CCCCCc1ccc(NC(C)=O)c2c1C(=O)N([C@H](CS(C)(=O)=O)c1ccc(OC)c(OCC)c1)C2=O [Example 9, (S)-2-[1-(3-ethoxy-4-methoxyphenyl)-2-alkylsulfonylethyl]-4-acetamido-7-pentyl isoindoline-1,3-diketone] | 0.49 | 30.6 | 0.44 | 5.83 | 12.2 | 0 | 10.1 | 5.44 | 0.81 | 1.99 | 1.82 | 20.8 | 44.5 | 0.43 | 0.82 | IC50 (PDE4D3): < 5 nM; IC50 (PDE4B2): < 100 nM; IC50 (PDE4A1): < 100 nM; inhibition at 10 µM (PDE5A1; 10 μM): 5.74%; IC50 (PDE4C1): < 200 nM |
| O=C(Nc1c(Cl)cncc1Cl)c1ccc(OC(F)F)c(OCC2CC2)c1 [Roflumilast] | – | – | 14.7 | – | – | – | – | – | – | – | 10.9 | – | – | 1.4 | 2.83 | – |

From US20240254082A1, “Substituted Isoindoline-1, 3-diketone PDE4 Inhibitor and Pharmaceutical Application Thereof” (SUZHOU INTRAGRAND PHARMA CO., LTD, priority 2021, published 2024)
